Source: ChEMBL document CHEMBL5241069, “A key review on oxadiazole analogs as potential methicillin-resistant Staphylococcus aureus (MRSA) activity: Structure-activity relationship studies” (Eur J Med Chem, 2021)
Converted amounts (≈) assume the structure as drawn.

Assays:
Staphylococcus aureus [1] = test: Antibacterial activity against methicillin resistant Staphylococcus aureus 181 assessed as inhibition of bacterial growth; format: functional
Staphylococcus aureus [2] = test: Antibacterial activity against methicillin resistant Staphylococcus aureus 128 assessed as inhibition of bacterial growth; format: functional
Staphylococcus aureus [3] = test: Antibacterial activity against methicillin resistant Staphylococcus aureus 42 assessed as inhibition of bacterial growth; format: functional
Staphylococcus aureus [4] = test: Antibacterial activity against methicillin resistant Staphylococcus aureus 747 assessed as inhibition of bacterial growth; format: functional
Staphylococcus aureus [5] = test: Antibiofilm activity against methicillin resistant Staphylococcus aureus ATCC 43866 assessed as inhibition of biofilm formation incubated for 18 to 24 hrs by tissue culture plate method; format: functional; details: time 18-24 hrs
Staphylococcus aureus [6] = test: Antibacterial activity against methicillin resistant Staphylococcus aureus assessed as inhibition zone by disc diffusion method; format: functional
Staphylococcus aureus [7] = test: Antibacterial activity against methicillin resistant Staphylococcus aureus assessed as inhibition of bacterial growth by broth dilution technique; format: functional
Staphylococcus aureus [8] = test: Antimicrobial activity against methicillin resistant Staphylococcus aureus 2658 RCMB assessed as inhibition of bacterial growth incubated for 20 hrs by CLSI protocol based broth microdilution method; format: functional
Staphylococcus aureus [9] = test: Antibacterial activity methicillin resistant Staphylococcus aureus 2658 RCMB assessed as inhibition of bacterial growth by broth microdilution method; format: functional
Staphylococcus aureus [10] = test: Antibacterial activity against methicillin resistant Staphylococcus aureus ATCC 43300 assessed as inhibition of bacterial growth incubated for 24 to 48 hrs by spectrophotometric analysis; format: functional; details: time 24-48 hrs
Staphylococcus aureus [11] = test: microbe, parasite or virus in culture; details: 032
Description: Antibacterial activity against methicillin resistant Staphylococcus aureus 032 assessed as inhibition of bacterial growth by CLSI protocol based serial dilution method

Staphylococcus aureus [12] = test: Antimicrobial activity against methicillin resistant Staphylococcus aureus 2 assessed as inhibition of bacterial growth incubated for 16 to 20 hrs by CLSI protocol based Muller-Hinton broth method; format: functional; details: time 16-20 hrs
Staphylococcus aureus [13] = test: Antimicrobial activity against methicillin resistant Staphylococcus aureus 1 assessed as inhibition of bacterial growth incubated for 16 to 20 hrs by CLSI protocol based Muller-Hinton broth method; format: functional; details: time 16-20 hrs
Staphylococcus aureus [14] = test: Antimicrobial activity against methicillin resistant Staphylococcus aureus 3 assessed as inhibition of bacterial growth incubated for 16 to 20 hrs by CLSI protocol based Muller-Hinton broth method; format: functional; details: time 16-20 hrs

O=c1c(F)cnc2onc(-c3ccc(Cl)cc3Cl)n12
MIC (Staphylococcus aureus [1]): ≥ 125 µg/mL
MIC (Staphylococcus aureus [2]): ≥ 125 µg/mL
MIC (Staphylococcus aureus [3]): 116 µg/mL (≈ 388 µM)
MIC (Staphylococcus aureus [4]): ≥ 125 µg/mL

O=c1c(F)cnc2onc(-c3c(F)cccc3F)n12
MIC (Staphylococcus aureus [1]): 120 µg/mL (≈ 447 µM)
MIC (Staphylococcus aureus [2]): ≥ 125 µg/mL
MIC (Staphylococcus aureus [3]): 122 µg/mL (≈ 458 µM)
MIC (Staphylococcus aureus [4]): ≥ 125 µg/mL

Cn1c(-c2nnc(/C=C/c3ccccc3)o2)cc(Br)c1Br
MIC (Staphylococcus aureus [5]): 6.25 µg/mL (≈ 15.3 µM)

CCCCCCCCCCCCCCC(Br)c1nnc(-c2ccco2)o1 (stereo not given)
inhibition zone (IZ) (Staphylococcus aureus [6]): 21.6 mm
MIC (Staphylococcus aureus [7]): 12.5 µg/mL (≈ 29.4 µM)

Cn1c(-c2nnc(-c3ccc(Cl)cc3)o2)cc(Br)c1Br
MIC (Staphylococcus aureus [5]): 1.56 µg/mL (≈ 3.74 µM)

Cc1nc(-c2ccc3ccccc3c2)sc1-c1nnc(NN)o1
MIC (Staphylococcus aureus [8]): 3.9 µg/mL (≈ 12.1 µM)

Cc1ccc(-c2noc3ncc(Br)c(=O)n23)cc1
MIC (Staphylococcus aureus [1]): ≥ 125 µg/mL
MIC (Staphylococcus aureus [2]): ≥ 125 µg/mL
MIC (Staphylococcus aureus [3]): 119 µg/mL (≈ 388 µM)
MIC (Staphylococcus aureus [4]): ≥ 125 µg/mL

Cc1nc(-c2ccc3ccccc3c2)sc1-c1nnc(N2CC(O)C2)o1
MIC (Staphylococcus aureus [8]): 3.9 µg/mL (≈ 10.7 µM)

Cc1nc(-c2ccc(C(C)(C)C)cc2)sc1-c1nnc(NN)o1
MIC (Staphylococcus aureus [9]): 6.25 µg/mL (≈ 19 µM)

CN[C@H](CC(C)C)C(=O)N[C@H]1C(=O)N[C@@H](CC(N)=O)C(=O)N[C@H]2C(=O)N[C@H]3C(=O)N[C@H](C(=O)N[C@H](C(=O)O)c4cc(O)cc(O)c4-c4cc3ccc4O)[C@H](O)c3ccc(c(Cl)c3)Oc3cc2cc(c3O[C@@H]2O[C@H](CO)[C@@H](O)[C@H](O)[C@H]2O[C@H]2C[C@](C)(N)[C@H](O)[C@H](C)O2)Oc2ccc(cc2Cl)[C@H]1O [VANCOMYCIN]
MIC (Staphylococcus aureus [1]): 20.3 µg/mL (≈ 14 µM)
MIC (Staphylococcus aureus [2]): 20.7 µg/mL (≈ 14.3 µM)
MIC (Staphylococcus aureus [5]): 6.25 µg/mL (≈ 4.31 µM)
MIC (Staphylococcus aureus [8]): 1.95 µg/mL (≈ 1.35 µM)
MIC (Staphylococcus aureus [3]): 13.1 µg/mL (≈ 9.04 µM)
MIC (Staphylococcus aureus [4]): 21.6 µg/mL (≈ 14.9 µM)

C=Cc1ccc(Oc2nnc(-c3cc(Br)c(Br)n3C)o2)c(OC)c1
MIC (Staphylococcus aureus [5]): 25 µg/mL (≈ 54.9 µM)

Cn1c(-c2nnc(-c3ccc([N+](=O)[O-])cc3)o2)cc(Br)c1Br
MIC (Staphylococcus aureus [5]): 3.12 µg/mL (≈ 7.3 µM)

CCCCCCCC/C=C/CCCCCCc1nnc(-c2ccccc2Cl)o1
inhibition zone (IZ) (Staphylococcus aureus [6]): 16.6 mm
MIC (Staphylococcus aureus [7]): 12.5 µg/mL (≈ 31 µM)

O=C(/C=C/c1cccc(F)c1)N1N=C(c2ccncc2)OC1c1cn(-c2ccccc2)nc1-c1ccc(F)cc1 (stereo not given)
MIC (Staphylococcus aureus [10]): 25 µg/mL (≈ 46.9 µM)

Cc1nc(-c2ccc(C(C)(C)C)cc2)sc1-c1nnc(NC(=N)N)o1
MIC (Staphylococcus aureus [9]): 6.25 µg/mL (≈ 17.5 µM)

Cn1c(-c2nnc(-c3ccccc3)o2)cc(Br)c1Br
MIC (Staphylococcus aureus [5]): 6.25 µg/mL (≈ 16.3 µM)

Cn1c(-c2nnc(-c3ccccc3O)o2)cc(Br)c1Br
MIC (Staphylococcus aureus [5]): 6.25 µg/mL (≈ 15.7 µM)

CCCCCCCCCCCCCCc1nnc(-c2ccco2)o1
inhibition zone (IZ) (Staphylococcus aureus [6]): 15.5 mm
MIC (Staphylococcus aureus [7]): 12.5 µg/mL (≈ 37.6 µM)

O=c1c(F)cnc2onc(-c3cccc(Cl)c3Cl)n12
MIC (Staphylococcus aureus [1]): ≥ 125 µg/mL
MIC (Staphylococcus aureus [2]): ≥ 125 µg/mL
MIC (Staphylococcus aureus [3]): 101 µg/mL (≈ 336 µM)
MIC (Staphylococcus aureus [4]): ≥ 125 µg/mL

Cc1nc(/C(=C\c2coc3ccc(F)cc3c2=O)c2ccc([N+](=O)[O-])cc2)no1
MIC (Staphylococcus aureus [11]): > 32 µg/mL

Cc1cc(C)c2occ(/C=C(/c3ccc([N+](=O)[O-])cc3)c3noc(C)n3)c(=O)c2c1
MIC (Staphylococcus aureus [11]): > 32 µg/mL

Cn1c(-c2nnc(-c3cc(Br)c(Br)[nH]3)o2)cc(Br)c1Br
MIC (Staphylococcus aureus [5]): 1.56 µg/mL (≈ 2.94 µM)

CCn1cc(C(=O)O)c(=O)c2cc(F)c(N3CCN(Cc4nnc(-c5ccc(C#N)cc5)o4)CC3)cc21
MIC (Staphylococcus aureus [12]): 1 µg/mL (≈ 1.99 µM)
MIC (Staphylococcus aureus [13]): 1 µg/mL (≈ 1.99 µM)
MIC (Staphylococcus aureus [14]): 2 µg/mL (≈ 3.98 µM)

Cc1nc(-c2ccc(C(C)(C)C)cc2)sc1-c1nnc(NC(=N)N2CCOCC2)o1
MIC (Staphylococcus aureus [9]): 25 µg/mL (≈ 58.6 µM)

O=c1c(F)cnc2onc(-c3cccc(F)c3F)n12
MIC (Staphylococcus aureus [1]): ≥ 125 µg/mL
MIC (Staphylococcus aureus [2]): ≥ 125 µg/mL
MIC (Staphylococcus aureus [3]): 115 µg/mL (≈ 429 µM)
MIC (Staphylococcus aureus [4]): ≥ 125 µg/mL

O=c1c(F)cnc2onc(-c3ccc(F)cc3F)n12
MIC (Staphylococcus aureus [1]): 100 µg/mL (≈ 375 µM)
MIC (Staphylococcus aureus [2]): 87.4 µg/mL (≈ 327 µM)
MIC (Staphylococcus aureus [3]): 96.4 µg/mL (≈ 361 µM)
MIC (Staphylococcus aureus [4]): ≥ 125 µg/mL

Cc1nc(-c2ccc(C(C)(C)C)cc2)sc1-c1nnc(NC(=N)N2CCN(C)CC2)o1
MIC (Staphylococcus aureus [9]): 25 µg/mL (≈ 56.9 µM)

Cc1nc(-c2ccc3ccccc3c2)sc1-c1nnc(NC(=N)N2CCNCC2)o1
MIC (Staphylococcus aureus [8]): 1.95 µg/mL (≈ 4.65 µM)

Cn1c(-c2nnc(-c3ccc(N)cc3)o2)cc(Br)c1Br
MIC (Staphylococcus aureus [5]): 1.56 µg/mL (≈ 3.92 µM)

O=c1c(Br)cnc2onc(-c3ccccc3)n12
MIC (Staphylococcus aureus [1]): ≥ 125 µg/mL
MIC (Staphylococcus aureus [2]): ≥ 125 µg/mL
MIC (Staphylococcus aureus [3]): 123 µg/mL (≈ 422 µM)
MIC (Staphylococcus aureus [4]): ≥ 125 µg/mL

CCCCC/C=C/CCC(O)CCCCCCc1nnc(-c2ccco2)o1 (stereo not given)
inhibition zone (IZ) (Staphylococcus aureus [6]): 13.2 mm
MIC (Staphylococcus aureus [7]): 12.5 µg/mL (≈ 33.4 µM)

CCCCC/C=C/CCC(O)CCCCCCc1nnc(-c2ccccc2Cl)o1 (stereo not given)
inhibition zone (IZ) (Staphylococcus aureus [6]): 19.7 mm
MIC (Staphylococcus aureus [7]): 12.5 µg/mL (≈ 29.8 µM)

CCCC(O)C/C=C/CCCCCCc1nnc(-c2ccccc2Cl)o1 (stereo not given)
inhibition zone (IZ) (Staphylococcus aureus [6]): 19.5 mm
MIC (Staphylococcus aureus [7]): 12.5 µg/mL (≈ 33.2 µM)

Cc1nc(-c2ccc(C(C)(C)C)cc2)sc1-c1nnc(NC(=N)c2cccnc2)o1
MIC (Staphylococcus aureus [9]): > 50 µg/mL

C=CCCCCCCCc1nnc(-c2ccccc2Cl)o1
inhibition zone (IZ) (Staphylococcus aureus [6]): 14.4 mm
MIC (Staphylococcus aureus [7]): 12.5 µg/mL (≈ 41 µM)
